According to patent US11396497B2, “Proteasome inhibitors” (New Mexico Tech University Research Park Corporation, priority 2018, dated 2022):
Where two headings read alike, the source gives them in different places.

Columns and labels:
[1] = molecular target: T1, chymotrypsin-like activity of the 26S proteasome (Homo sapiens, UniProt P28074); experiment: Proteasome assay, chymotrypsin-like (ChT-L) activity, Suc-LLVY-AMC, Jurkat cell lysate; format: biochemical; details: ± S.D.
T1 construct: endogenous in cells; host or cells: Jurkat (ATCC TIB-152, E6-1 clone) cell lysate
T1 sequence (P28074 60-263): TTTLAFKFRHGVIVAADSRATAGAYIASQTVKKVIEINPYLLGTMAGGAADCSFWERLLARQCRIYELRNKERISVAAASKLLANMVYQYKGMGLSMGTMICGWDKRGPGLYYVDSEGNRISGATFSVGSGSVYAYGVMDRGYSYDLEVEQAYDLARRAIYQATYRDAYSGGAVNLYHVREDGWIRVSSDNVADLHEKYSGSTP
Description: The lysate was stored at −80° C. until the sample was used for the proteasome assay.
(§1) The compounds were diluted with lysis buffer; 10 μL of the compound-containing solution was added to the test wells at ten times the final concentration. […] The results are reported as the average of at least 3 technical replicates of IC50 values for proteasome inhibition.

[2] = molecular target: T2, immunoproteasome iβ5 subunit (Homo sapiens, UniProt P20618+P28062); experiment: Subunit selectivity, purified immunoproteasome iβ5; format: biochemical; details: 8 μg/mL purified iCP; ± SD; read-out: iβ5 IC50
T2 construct: purchased Enzo Life Sciences
Description: as §1
(§2) Values and standard deviations were calculated from an assay performed in biological triplicate.

[3] = molecular target: T3, β5 subunit of the 26S yeast proteasome (yCP) (Saccharomyces cerevisiae, UniProt P23724+P30656); experiment: Protein-drug co-crystal structure; format: binding; details: X-ray crystallography
T3 construct: measured using 8 μg/mL of purified yCP or iCP
Description: The binding mode of compound 11a in the yeast proteasome was examined. The yeast proteasome (yCP) has high homology with mammalian proteasomes but is easier to crystallize. Compound 11a was incubated at a high concentration with active yCP, and the enzyme-inhibitor complex was analyzed using X-ray crystallography.
Compound 11a is positioned in a kinked β-sheet-like conformation that is stabilized by hydrogen bonding with Thr21 and Gly47. The PI is further stabilized by the hydrophobic interaction of P3, whereas P2 and P4 lack any direct interactions within the binding pocket. The PI prevents the regeneration of the Thr1 catalytic site by complexing the water molecule generated by the hydrolysis of the β-lactone. The water molecule is stabilized in the binding pocket by residues Thr1, Ser131, and the hydroxyl group of the hydrolyzed lactone. […] The biological effects of P2 and P4 can be attributed to the pharmacokinetics of the cystargolide scaffold instead of binding to the β5 subunit of the proteasome.

[4] = molecular target: T4, yeast proteasome yβ5 subunit (Saccharomyces cerevisiae, UniProt P23724+P30656); experiment: Subunit selectivity, purified yeast proteasome yβ5; format: biochemical; details: 8 μg/mL purified yCP; ± SD; read-out: yβ5 IC50
T4 construct: measured using 8 μg/mL of purified yCP or iCP
Description: as §1, §2

[5] = molecular target: T5, yeast proteasome yβ2 subunit (Saccharomyces cerevisiae, UniProt P25043+P25451); experiment: Subunit selectivity, purified yeast proteasome yβ2; format: biochemical; details: 8 μg/mL purified yCP; ± SD; read-out: yβ2 IC50
T5 construct: measured using 8 μg/mL of purified yCP or iCP
Description: as §1, §2

[6] = molecular target: T6, yeast proteasome yβ1 subunit (Saccharomyces cerevisiae, UniProt P25043+P38624); experiment: Subunit selectivity, purified yeast proteasome yβ1; format: biochemical; details: 8 μg/mL purified yCP; ± SD; read-out: yβ1 IC50
T6 construct: measured using 8 μg/mL of purified yCP or iCP
Description: as §1, §2

MDA-MB-231 cells = experiment: MTT assay cytotoxicity MDA-MB-231
Description: (§3) The cells were incubated at 37° C. in a humidified atmosphere with 5% CO2.
(§4) 100 μL of cells were added to each well of a 96 well microtiter plate at a concentration of 4×10^4 cells/mL and incubated overnight to allow proper adhesion. (RPMI 8226 cells were plated at 4×10^5 cells/mL). The cells were treated with the panel of test compounds at a series of concentrations, along with vehicle control DMSO and untreated cells as controls. After 48 h incubation, 20 μL of MTT reagent (3-(4,5-dimethylthiazol-2-yl)-2,5-diphenyltetrazolium bromide) in PBS (5 mg/mL) was added to each well of the plates. The plate was incubated for 2 h at 37° C. For adherent cell lines, the media was removed from each well of the plate and the resulting formazan crystals dissolved in 100 μL of DMSO. For RPMI 8226 cells, 200 ul of DMF/SDS mix (50% DMF. 10% w/v SDS pH<4) was used to solubilize the formazan crystals. Optical density (OD) at 490 nm was measured using a microplate reader. Cells treated with 1 μM phenyl arsine oxide (PAO) served as a positive cell-killing control. Technical replicates of these assays were performed in biological quadruplicate, and the three best values were used for analysis in order to eliminate outliers. Data presented are the average IC50 value calculated from at least 3 technical replicates with the corresponding standard deviation.

RPMI 8226 cells = experiment: MTT assay cytotoxicity RPMI 8226
Description: as §3, §4

MCF7 cells = experiment: MTT assay cytotoxicity MCF7
[7] = system: cancer cells (MCF7, MDA-MB-231, RPMI 8226); experiment: MTT cytotoxicity, cell line not given
[8] = system: MCF-7 breast cancer cell line; experiment: Drug deactivation by serum: cytotoxicity towards MCF-7 in FBS, NBS or human serum; format: cell-based; details: MCF-7 cytotoxicity
Description: The deactivation of compounds was evaluated by testing the toxicity of compounds 8 and 12a in three different types of serums (i.e., fetal bovine serum (FBS), newborn bovine serum (NBS), and human serum). FBS is taken during the development of a calf fetus, so the serum has less protein associated with the innate immune system, and less protein altogether compared to NBS and human serum. […] The structural optimization of compound 12a improved the serum stability of the drug: P3 was changed from isopropyl to CH2OBn, and P4 was changed from OBn to NHBn. The OBn group of P4 was more sensitive to deactivation than NHBn.
The MCF-7 cells were cultured in three different types of serum. Assays were performed in biological triplicate, and the data points are reported with the corresponding standard deviation.

IC50 ([1]; Table 5, read-out: Proteasome Inhib. ChT-L IC50) [nM]	Compound	IC50 ([1]; Table 4, P4 analogues, read-out: Proteasome Inhibition ChT-like IC50) [nM]	IC50 [2] [nM]	binding mode in the crystal structure [3]	IC50 [4] [nM]	IC50 [5] [nM]	IC50 [6] [nM]	IC50 (MDA-MB-231 cells; read-out: Cytotoxicity MDA-MB-231 IC50, Table 4, MTT, 48 h) [nM]	IC50 (RPMI 8226 cells; read-out: Cytotoxicity RPMI 8226 IC50, Table 4, MTT, 48 h) [nM]	IC50 (MCF7 cells; read-out: Cytotoxicity MCF7 IC50, Table 4, MTT, 48 h) [nM]	times less cytotoxic than carfilzomib [7]	IC50 (MDA-MB-231 cells; Homo sapiens, MDA-MB-231, read-out: Cytotoxicity MDA-MB-231 IC50) [nM]	IC50 (RPMI 8226 cells; Homo sapiens, RPMI-8226, read-out: Cytotoxicity RPMI 8226 IC50) [nM]	IC50 (MCF7 cells; Homo sapiens, MCF7, read-out: Cytotoxicity MCF7 IC50) [nM]	fold decrease in activity with NBS or human serum instead of FBS [8] [fold]
	C=CCOC(=O)[C@@H](NC(=O)[C@@H](NC(=O)[C@@H]1OC(=O)[C@H]1[C@@H](C)CC)C(C)C)C(C)C [Compound 11a, Allyl((2R,3S)-3-((S)-sec-butyl)-4-oxooxetane-2-carbonyl)-L-valyl-L-valinate]	11.6 ± 2.8	41.2 ± 15.2	binds covalently to Thr1Oγ at the active site of subunit β5 of the yCP	19.5 ± 0.8	> 10000	779 ± 42	275 ± 112	94 ± 15	311 ± 82					
0.647 ± 0.021	CC[C@H](C)[C@@H]1C(=O)O[C@H]1C(=O)N[C@H](C(=O)N[C@@H](COCc1ccccc1)C(=O)NCc1ccccc1)C(C)C [Compound 12a]		33 ± 13.4		8.2 ± 1.4	13600 ± 5490	20400 ± 12900				about 10 times	56.3 ± 3.09	28.8 ± 1.09	93.9 ± 2.94	< 10
